The source of these data is patent US9561228B2 (Celgene Avilomics Research, Inc., priority 2013, dated 2017).

The target of this assay is T1, MEK1 activated ERK1 (Homo sapiens, UniProt P27361).
T1 construct: purchased Millipore (Billerica, Mass.) 14-439-K
Briefly: Omnia continuous-read kinase assay for potency against MEK1 activated ERK1. The class given is biochemical. The conditions noted are these: MEK1 activated ERK1, ATP at KM; read-out: ERK1 Omnia WT ATP KM IC50. From the text:
Omnia Assay Protocol for Potency Assessment Against MEK1 Activated ERK1:
The protocol below describes continuous-read kinase assays to measure potency of compounds against activated ERK1 enzyme. The mechanics of the assay platform are best described by the vendor (Invitrogen, Carlsbad, Calif.) on their website at the following URL: invitrogen.com/site/us/en/home.html.
Briefly, a 1.25× stock of ERK1 enzyme (14-439-K) from Millipore (Billerica, Mass.), 5×ATP (AS001A) and ST17-Sox conjugated peptide substrate (KNZ1171C) were prepared in 1× kinase reaction buffer consisting of 20 mM Tris, pH 7.5, 5 mM MgCl2, 1 mM EGTA, 5 mM β-glycerophosphate, 5% glycerol (10× stock, KB002A) and 0.2 mM DTT. 10 μL of ATP/ST17-sox peptide substrate mix was combined with 0.5 μL volume of 100% DMSO and serially diluted compounds were prepared in 100% DMSO in a Corning (#3574) 384-well, white, non-binding surface microtiter plate (Corning, N.Y.). Kinase reactions were started with the addition of 40 μL of ERK1 solution and monitored every 71 seconds for 30-240 minutes at λex360/λem485 in a Synergy plate reader from BioTek (Winooski, Vt.). At the conclusion of each assay, progress curves from each well were examined for linear reaction kinetics and fit statistics (R^2, 95% confidence interval, absolute sum of squares). Initial velocity (0 minutes to ˜30+ minutes) from each reaction was determined from the slope of a plot of relative fluorescence units vs time (minutes or seconds) and then plotted against inhibitor concentration to estimate ^AppIC50 from log [Inhibitor] vs Response, Variable Slope model in GraphPad Prism from GraphPad Software (San Diego, Calif.).
[Reagent] used in optimized protocol:
[ERK1]=4 nM, [ATP]=50 μM, [ST17-Sox]=10 μM (ATP ^appKM 48 μM)
The results of this assay show the degree of inhibition of ERK activity, which is a direct measurement of inhibition of ERK activity. Results from this assay are reported in Table A under the column “ERK1 Omnia WT ATP KM IC50 (nM).”

T1 sequence (P27361 whole entry): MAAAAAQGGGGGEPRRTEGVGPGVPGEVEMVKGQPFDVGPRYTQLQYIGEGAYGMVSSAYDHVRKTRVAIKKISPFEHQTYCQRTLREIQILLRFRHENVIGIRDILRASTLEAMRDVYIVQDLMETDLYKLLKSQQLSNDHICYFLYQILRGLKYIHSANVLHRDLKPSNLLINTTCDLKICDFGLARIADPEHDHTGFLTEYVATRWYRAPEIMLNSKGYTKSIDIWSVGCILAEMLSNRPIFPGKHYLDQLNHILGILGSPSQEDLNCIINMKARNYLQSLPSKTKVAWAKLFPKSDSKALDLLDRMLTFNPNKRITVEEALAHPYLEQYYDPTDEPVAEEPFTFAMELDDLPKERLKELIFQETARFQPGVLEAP

With `C=CC(=O)Nc1ccccc1Nc1nc(Nc2ccc(N(CCCNC(=O)OC(C)(C)C)C(C)=O)cc2OC)ncc1Cl` [Compound I-173], the IC50 (usually the point on the concentration scale where inhibition reaches its midpoint) was 501 to 999 nM.

Turning to `C=CC(=O)Nc1cc(OC)ccc1Nc1nc(Nc2ccc(N3CCC[C@@H]3CO)cc2C#N)ncc1Cl` [Compound I-181, (R)—N-(2-((5-chloro-2-((2-cyano-4-(2-(hydroxymethyl)pyrrolidin-1-yl)phenyl)amino)pyrimidin-4-yl)amino)-5-methoxyphenyl)acrylamide], the IC50 fell in the range of 501 to 999 nM.

As to `C=CC(=O)Nc1ccccc1Nc1nc(Nc2ccc(N(CC)C(C)=O)cc2C(F)(F)F)ncc1Cl` [Compound I-320], the IC50 is 501 to 999 nM.

`C=CC(=O)Nc1cc(OC)ccc1Nc1nc(Nc2ccc(N3CCN(C(C)=O)CC3)cc2OC)ncc1Cl` [Compound I-152, N-(2-((2-((4-(4-acetylpiperazin-1-yl)-2-methoxyphenyl)amino)-5-chloropyrimidin-4-yl)amino)-5-methoxyphenyl)acrylamide]: the IC50 is 501 to 999 nM.

For `C=CC(=O)Nc1ccccc1Nc1nc(Nc2ccc(N3CCC[C@H]3C(N)=O)cc2C#N)ncc1Cl` [Compound I-177, (S)-1-(4-((4-((2-acrylamidophenyl)amino)-5-chloropyrimidin-2-yl)amino)-3-cyanophenyl)pyrrolidine-2-carboxamide], the IC50 was 101 to 500 nM.

For `C=CC(=O)Nc1ccccc1Nc1nc(N[C@H]2CCCN(C(=O)C(C)=O)C2)ncc1C(F)(F)F` [Compound I-49, (S)—N-(2-((2-((1-(2-Oxopropanoyl)piperidin-3-yl)amino)-5-(trifluoromethyl)pyrimidin-4-yl)amino)phenyl)acrylamide], the IC50 is 501 to 999 nM.

With `C=CC(=O)N[C@@H]1CCCC[C@H]1Oc1nc(Nc2cc(C(N)=O)ccc2C)ncc1Cl` (racemic) [Compound I-270, Rac-trans-3-((4-((2-acrylamidocyclohexyl)oxy)-5-chloropyrimidin-2-yl)amino)-4-methylbenzamide], the IC50 is greater than 1000 nM.

For the molecule `C=CC(=O)N[C@@H]1CCCC[C@H]1Oc1nc(Nc2cc(C(N)=O)ccc2C)ncc1C(N)=O` (racemic) [Compound I-268, Rac-trans-4-((2-acrylamidocyclohexyl)oxy)-2-((5-carbamoyl-2-methylphenyl)amino)pyrimidine-5-carboxamide], the IC50 is greater than 1000 nM.

For the molecule `C=CC(=O)Nc1ccccc1Nc1nc(N[C@H]2CC[C@H](O)CC2)ncc1C(F)(F)F` [Compound I-1, Trans-N-(2-((2-((4-hydroxycyclohexyl)amino)-5-(trifluoromethyl)pyrimidin-4-yl)amino)phenyl)acrylamide], the IC50 fell in the range of 101 to 500 nM.

In the case of `C=CC(=O)Nc1cc(OC)ccc1Nc1nc(Nc2ccc(N(CC)C(C)=O)cc2C(F)(F)F)ncc1Cl` [Compound I-176, N-(2-((5-chloro-2-((4-(N-ethylacetamido)-2-(trifluoromethyl)phenyl)amino)pyrimidin-4-yl)amino)-5-methoxyphenyl)acrylamide], the IC50 was in the range of 501 to 999 nM.

`C=CC(=O)Nc1ccccc1Nc1nc(N[C@H]2CC[C@H](C(N)=O)CC2)ncc1C(F)(F)F` [Compound I-16, 4-((4-((2-acrylamidophenyl)amino)-5-(trifluoromethyl)pyrimidin-2-yl)amino)-trans-cyclohexanecarboxamide]: the IC50 is 101 to 500 nM.

As to `C=CC(=O)N[C@@H]1CCCC[C@H]1Nc1nc(Nc2cc(C(=O)NOCCO)ccc2C)ncc1C(N)=O` (racemic) [Compound I-257, Rac-trans-4-((2-acrylamidocyclohexyl)amino)-2-((5-((2-hydroxyethoxy)carbamoyl)-2-methylphenyl)amino)pyrimidine-5-carboxamide], the IC50 was greater than 1000 nM.

As to `C=CC(=O)Nc1ccccc1Nc1nc(N[C@@H]2CCC[C@H](C(=O)NOC)C2)ncc1Cl` (racemic) [Compound I-203, Rac-cis-3-((4-((2-acrylamidophenyl)amino)-5-chloropyrimidin-2-yl)amino)-N-methoxycyclohexanecarboxamide], the IC50 was 101 to 500 nM.

Regarding `C=CC(=O)N(C)c1ccccc1Nc1nc(N[C@H]2CC[C@H](O)CC2)ncc1Cl` [Compound I-104, N-(2-((5-chloro-2-(trans-(4-hydroxycyclohexyl)amino)pyrimidin-4-yl)amino)phenyl)-N-methylacrylamide], the IC50 was in the range of 501 to 999 nM.

Regarding `C=CC(=O)Nc1ccccc1Nc1nc(N[C@H]2CC[C@H](C(N)=O)CC2)ncc1Cl` [Compound I-129, trans-4-((4-((2-acrylamidophenyl)amino)-5-chloropyrimidin-2-yl)amino)-cyclohexanecarboxamide], the IC50 was in the range of 101 to 500 nM.

As to `C=CC(=O)Nc1ccccc1Nc1nc(N[C@H]2CCCN(C(=O)[C@H](O)CO)C2)ncc1C(F)(F)F` [Compound I-51, N-(2-((2-(((S)-1-((R)-2,3-Dihydroxypropanoyl)piperidin-3-yl)amino)-5-(trifluoromethyl)pyrimidin-4-yl)amino)phenyl)acrylamide], the IC50 lay within 101 to 500 nM.

Turning to `C=CC(=O)Nc1ccccc1Nc1nc(N[C@@H]2CCCN(C(C)=O)C2)ncc1Cl` [Compound I-128, (R)—N-(2-((2-((1-acetylpiperidin-3-yl)amino)-5-chloropyrimidin-4-yl)amino)phenyl)acrylamide], the IC50 lay within 101 to 500 nM.

With `C=CC(=O)Nc1ccccc1Nc1nc(N[C@H]2CC[C@@H](O)CC2)ncc1C(F)(F)F` [Compound I-109, N-(2-((2-(cis-(4-hydroxycyclohexyl)amino)-5-(trifluoromethyl)pyrimidin-4-yl)amino)phenyl)acrylamide], the IC50 lay in the range of 501 to 999 nM.

As for `C=CC(=O)Nc1ccccc1Nc1nc(Nc2ccc(N3CCNCC3)cc2OC(F)F)ncc1Cl` [Compound I-142, N-(2-((5-chloro-2-((2-(difluoromethoxy)-4-(piperazin-1-yl)phenyl)amino)pyrimidin-4-yl)amino)phenyl)acrylamide], the concentration for half-maximal inhibition (IC50) was 101 to 500 nM.

For `C=CC(=O)Nc1ccccc1Nc1nc(N[C@@H]2CCC[C@H](C(=O)NOCCO)C2)ncc1C(F)(F)F` (racemic) [Compound I-4, Rac-cis-3-((4-((2-acrylamidophenyl)amino)-5-(trifluoromethyl)pyrimidin-2-yl)amino)-N-(2-hydroxyethoxyl)cyclohexanecarboxamide], the IC50 lay in the range of 101 to 500 nM.

Regarding `C=CC(=O)Nc1ccccc1Nc1nc(N[C@H]2CC[C@H](O)CC2)ncc1Cl` [Compound I-101], the IC50 lay within 101 to 500 nM.

For the molecule `C=CC(=O)Nc1ccccc1Nc1nc(N[C@H]2CCCN(C(=O)[C@@H](O)CO)C2)ncc1C(F)(F)F` [Compound I-50, N-(2-((2-(((S)-1-((S)-2,3-Dihydroxypropanoyl)piperidin-3-yl)amino)-5-(trifluoromethyl)pyrimidin-4-yl)amino)phenyl)acrylamide], the IC50 is 101 to 500 nM.

Regarding `C=CC(=O)Nc1ccccc1Nc1nc(Nc2cc(C(=O)O)ccc2C)ncc1C(F)(F)F` [Compound I-78, 3-((4-((2-Acrylamidophenyl)amino)-5-(trifluoromethyl)pyrimidin-2-yl)amino)-4-methylbenzoic acid], the IC50 was in the range of 501 to 999 nM.

With `C=CC(=O)Nc1ccccc1Nc1nc(N[C@@H]2CCC[C@H](C(=O)NOC)C2)ncc1C(F)(F)F` (racemic) [Compound I-3, Rac-cis-3-((4-((2-acrylamidophenyl)amino)-5-(trifluoromethyl)pyrimidin-2-yl)amino)-N-methoxycyclohexanecarboxamide], the IC50 was 101 to 500 nM.

Regarding `C=CC(=O)Nc1ccccc1Nc1nc(N[C@H]2CC[C@H](OC)CC2)ncc1Cl` [Compound I-100], the 50% inhibitory concentration (IC50) was 101 to 500 nM.

Regarding `C=CC(=O)Nc1ccccc1Nc1nc(Nc2ccc(N(CCCNC(=O)OC(C)(C)C)C(C)=O)cc2C(F)(F)F)ncc1Cl` [Compound I-169, tert-butyl(3-(N-(4-((4-((2-acrylamidophenyl)amino)-5-chloropyrimidin-2-yl)amino)-3-(trifluoromethyl)phenyl)acetamido)propyl)carbamate], the IC50 fell in the range of 501 to 999 nM.

Turning to `C=C(C)S(=O)(=O)Nc1ccccc1Nc1nc(Nc2cc(C(C)=O)ccc2C)ncc1C(F)(F)F` [Compound I-97, N-(2-((2-((5-acetyl-2-methylphenyl)amino)-5-(trifluoromethyl)pyrimidin-4-yl)amino)phenyl)prop-1-ene-2-sulfonamide], the IC50 was 501 to 999 nM.

As for `C=CC(=O)Nc1cc(OC)ccc1Nc1nc(Nc2ccc(N3CCC[C@H]3CO)cc2C#N)ncc1Cl` [Compound I-163, (S)—N-(2-((5-chloro-2-((2-cyano-4-(2-(hydroxymethyl)pyrrolidin-1-yl)phenyl)amino)pyrimidin-4-yl)amino)-5-methoxyphenyl)acrylamide], the IC50 was in the range of 501 to 999 nM.
